Source: the supplement of paper PMC11061612

How the values were obtained:
Test in all cases: combination Emax (second highest fraction inhibited in the dose matrix, 72 h); higher = more inhibition; extreme values may be limits of the assay
[1] = tested on: MKN28 (Gastric Carcinoma)
Summary of the method: (§1)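 Cell lines grown in DMEM/F12 or RPMI with 10% FBS were plated in 1536-well plates and held 24 hours at 37°C, 5% CO2 before 72 hours of exposure to two-drug dose matrices, with DMSO typically at 0.2%. CellTiter-Glo 2.0 luminescence gave viability, which was converted to inhibition. Vehicle wells were set to 0 and blank wells to 1. Combination Emax is the second-highest inhibition in the matrix, and Bliss excess is the observed combination effect minus the expected EA + EB − EA·EB, where EA and EB are the single-agent effects.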

[2] = tested on: TE-6 (Esophageal Squamous Cell Carcinoma)
Summary of the method: as §1

[3] = tested on: SW837 (Colorectal Carcinoma)
Summary of the method: as §1

[4] = tested on: GR-ST (B-Lymphoblastic Leukemia)
Summary of the method: as §1

[5] = tested on: P12-ICHIKAWA (T-Lymphoblastic Leukemia)
Summary of the method: as §1

[6] = tested on: EVSA-T (Breast Carcinoma)
Summary of the method: as §1

[7] = tested on: NCI-H847 (Small Cell Lung Carcinoma)
Summary of the method: as §1

[8] = tested on: NCI-H2818 (Mesothelioma)
Summary of the method: as §1

[9] = tested on: DiFi (Colorectal Carcinoma)
Summary of the method: as §1

[10] = tested on: LN-18 (Glioblastoma)
Summary of the method: as §1

[11] = tested on: U251 (Low Grade Glioma)
Summary of the method: as §1

[12] = tested on: TC-71 (Ewing's Sarcoma)
Summary of the method: as §1

[13] = tested on: ES8 (Ewing's Sarcoma)
Summary of the method: as §1

[14] = tested on: WIL2-NS (Non-Cancerous)
Summary of the method: as §1

[15] = tested on: ES1 (Ewing's Sarcoma)
Summary of the method: as §1

[16] = tested on: KYSE-180 (Esophageal Squamous Cell Carcinoma)
Summary of the method: as §1

[17] = tested on: K-562 (Chronic Myelogenous Leukemia)
Summary of the method: as §1

[18] = tested on: WM-115 (Melanoma)
Summary of the method: as §1

[19] = tested on: MEL-JUSO (Melanoma)
Summary of the method: as §1

[20] = tested on: HDQ-P1 (Breast Carcinoma)
Summary of the method: as §1

Structure (SMILES)	combination Emax [1]	combination Emax [2]	combination Emax [3]	combination Emax [4]	combination Emax [5]	combination Emax [6]	combination Emax [7]	combination Emax [8]	combination Emax [9]	combination Emax [10]	combination Emax [11]	combination Emax [12]	combination Emax [13]	combination Emax [14]	combination Emax [15]	combination Emax [16]	combination Emax [17]	combination Emax [18]	combination Emax [19]	combination Emax [20]
Cc1c2c(nn1C)CSCc1cc(n(C)n1)CSc1cc(c3ccccc3c1)OCCCc1c(C(=O)O)n(C)c3c-2c(Cl)ccc13 [AZD5991] + C[C@@H](Nc1cc(F)cc(F)c1)c1cc(C(=O)N(C)C)cc2c(=O)cc(N3CCOCC3)oc12 [AZD8186] (first compound max 1 µM, 7x7, partner max 3 µM)	0.232	0.677	0.188	0.257	0.964	1	0.792	0.387	0.35	0.573	0.226	0.573	0.613	0.337	0.904	0.877	0.389	0.656	0.527	0.237
Cc1c2c(nn1C)CSCc1cc(n(C)n1)CSc1cc(c3ccccc3c1)OCCCc1c(C(=O)O)n(C)c3c-2c(Cl)ccc13 [AZD5991] + Cc1cc2ncnn2cc1Nc1ncc2c(n1)n(C1CCOCC1)c(=O)n2C [AZD7648] (first compound max 1 µM, 7x7, partner max 10 µM)	0.25	0.683	0.128	0.464	1	1	0.877	0.48	0.319	0.35	0.229	0.48	0.455	0.41	0.798	0.9	0.182	0.357	0.277	0.257
Cc1c2c(nn1C)CSCc1cc(n(C)n1)CSc1cc(c3ccccc3c1)OCCCc1c(C(=O)O)n(C)c3c-2c(Cl)ccc13 [AZD5991] + Cn1cnc2c(F)c(Nc3ccc(Br)cc3Cl)c(C(=O)NOCCO)cc21 [Selumetinib] (first compound max 1 µM, 7x7, partner max 3 µM)	0.387	0.62	0.325	0.0688	1	1	0.863	0.293	0.875	0.315	0.274	0.578	0.521	0.236	0.777	0.848	0.416	0.68	0.669	0.211
COc1cccc(OCCCN)c1-c1cc(Nc2cnc(C#N)cn2)n[nH]1 [Prexasertib] + CCc1c2c(nc3ccc(O)cc13)-c1cc3c(c(=O)n1C2)COC(=O)[C@]3(O)CC [SN-38] (first compound max 1 µM, 7x7, partner max 0.3 µM)	0.742	0.884	0.844	0.871	1	0.986	1	0.423	0.931	1	0.984	1	0.989	1	1	1	0.983	0.514	0.707	0.944
CC(=O)Nc1cccc(-n2c(=O)n(C3CC3)c(=O)c3c(Nc4ccc(I)cc4F)n(C)c(=O)c(C)c32)c1 [Trametinib] + Cc1nc(-c2cn3c(n2)-c2ccc(-c4cnn(C(C)(C)C(N)=O)c4)cc2OCC3)n(C(C)C)n1 [Taselisib] (first compound max 1 µM, 7x7, partner max 10 µM)	0.708	0.908	0.738	0.633	0.658	0.947	0.782	0.428	1	0.847	0.848	0.714	0.844	0.723	0.651	0.638	0.495	0.951	0.863	0.915
CC1(C)CCC(CN2CCN(c3ccc(C(=O)NS(=O)(=O)c4ccc(NCC5CCOCC5)c([N+](=O)[O-])c4)c(Oc4cnc5[nH]ccc5c4)c3)CC2)=C(c2ccc(Cl)cc2)C1 [Venetoclax] + C1CN(CCC1(C(=O)N[C@@H](CCO)C2=CC=C(C=C2)Cl)N)C3=NC=NC4=C3C=CN4 [Capivasertib] (first compound max 1 µM, 7x7, partner max 3 µM)	0.255	0.503	0.127	0.696	0.49	0.855	0.829	0.175	0.34	0.365	0.303	0.257	0.532	0.912	0.547	0.312	0.369	0.397	0.204	0.205
